This is an account of results in patent US9850483B2, “Methods and systems for analysis of single cells” (The Board of Trustees of the Leland Stanford Junior …, priority 2010, dated 2017).

For the test, the system named is murine breast cancer stem cells. Kind of test: Clonogenic ability of murine breast cancer stem cells (colony number). Type of test: cell-based. The conditions noted are these: short, 24 hour exposure to the inhibitor; p<0.02, t test. As to the method:
Many of these genes have been linked to self renewal and cancer. These include the insulin growth factor binding partner IGFBP3, the HOX family members HOXA3, HOXA5, ME1S1 as well as transcription factors like ETS1, ETS2, RUNX2 and STAT3. It was tested whether the transcription factor STAT3 is a bona fide cancer stem cell regulator. STAT3 plays a role in the maintenance of both ES cells and HSCs. […] Next, when we examined immunochemistry analysis of breast tumors the STAT3 positive cells tended to be concentrated on the invasive edge of the cancer and the protein was not seen in the more differentiated-looking cells in the interior parts of tumors. Finally, there are small molecule inhibitors of STAT3. Such inhibitors can be tested in cancer stem cell models. The effect of the STAT3 inhibitor cucurbitacin on the clonogenic ability of murine breast cancer stem cells was tested.

As for cucurbitacin, the “reduction of the number of colonies” value was around 50%.
